Results as given in US20230255872A1, “ORAL CARE COMPOSITIONS AND METHODS” (DENTHERAPY LTD, priority 2020, published 2023).
Where two headings read alike, the source gives them in different places.

What was measured:
[1] = Description: Introduction. The remineralisation potential of three formulations: deionised water, 500 ppm fluoride solution from MFP and fluoride free Toothboost MOL-15 formulation were tested in a standard microindentation erosive lesion rehardening model, as described above in example 3. The objective of this study was to ascertain if fluoride free Toothboost MOL-15 formulation has the potential to remineralise erosive lesions without the presence of fluoride.
(§1) Method. Five times a day for five days human enamel specimens with citric acid erosive lesions were sprayed with 0.15 g of the test formulations and incubated in artificial saliva (containing 1500 units/L of phosphatase) at 37° C. between treatments. The microhardness of the enamel specimens was remeasured after five days and the degree of re-mineralization calculated using the boundary conditions of 100% mineralized for the hardness of the initial enamel before the formation of the lesions and 0% mineralization for the hardness of the enamel after the formation of the lesion.

[2] = Vickers microindentation erosive lesion rehardening model, MOK vs MOL (Example 3); conditions: bovine enamel, treated twice a day for seven days, spray approx 0.1 ml, N=8
Description: Introduction. […] The objective of the study was to ascertain if formulation development for ToothBoost retained remineralizing efficacy. Four treatment groups were placed in the study: 1. MOK (legacy formulation), 2. Phosphate free ToothBoost MOL (development formulation), 3. 500 ppm fluoride solution made from MFP, 4. Deionised water. N=8 enamel specimens per treatment group.
Enamel blocks are prepared from sound disease free human molars or bovine incisors and mounted in 25 mm diameter resin discs. After curing the underside of the disc is flattened using p400 grit paper. […]
The discs are then rinsed under deionised water and sonicated for five minutes. Initial microhardness of the sound enamel is measured by microindentation to determine that the enamel is sufficiently mineralized for the purpose of the study and to record the microhardness of the sound enamel. […]
Method. […] The microhardness of the de-mineralized enamel is then measured and the enamel discs organised so that each group have a similar range of microhardness values.
The citric acid eroded bovine enamel specimens were then treated twice a day for seven days. […] At the end of day seven, the enamel specimens were rinsed in deionised water, dried and the micro hardness of the enamel was measured by Vickers microindentation to determine the extent of the re-mineralization of the enamel lesions. […]

[3] = remark: listed apart in the source
Description: Introduction. The remineralisation potential of three formulations: deionised water, 1450 ppm fluoride solution from MFP and fluoride free BoostPaste MON-6 formulation were tested in a standard microindentation erosive lesion rehardening model as described above in example 3. The objective of this study was to ascertain if fluoride free Boostpaste MON-6 formulation has the potential to remineralise erosive lesions without the presence of fluoride.
as §1, with “Method. Twice” for “Method. Five times”, “were brushed” for “were sprayed”, “with” for “with 0.15 g of”, “remeasured each day for” for “remeasured after”

[4] = Further stain prevention cycling study (Example 8); set-up: species or system bovine
Description: Introduction. A cycling staining procedure as described in example 6 was again used to measure the staining prevention when bovine enamel was subjected to a cycling staining procedure after being treated with one of four formulations: ToothBoost MOL-6, a 3% solution of OPN pH adjusted to 7.0, a 1.25% solution of sodium bicarbonate pH adjusted to 7.0 and deionised water. The aim of the study was to rank the formulations in terms of their stain prevention capability when bovine enamel was treated with a combination of tea stain and chlorhexidine.
Method. The enamel cores were treated by spraying the assigned treatment onto the enamel face using a single actuation of the ToothBoost spray pack and incubating for two minutes.
The enamel specimens were then cycled between a 1% chlorhexidine solution, a solution of strong tea and artificial saliva for approximately ten cycles per day. At the end of the day of cycling the enamel was rinsed and allowed to dry before the enamel colour measured. The cycling continued for a total of three days of cycling. From the L*a*b* measurements the ΔE76 (change in perceivable colour) was calculated. ΔE76=1 is the smallest perceivable colour change that can be observed.
The cycling continued every day for three days.
After each set of cycling the enamel was rinsed with deionised water and allowed to dry before colour measurements were made. Fresh solutions were made at the start of each set of cycles.
Results. The change in colour of the enamel was calculated from the L*a*b* values where the ΔE76 (The difference between enamel colour before and after cycling) was determined from equation 1: […]

[5] = after the second round of treatments

F [500 ppm fluoride solution, monofluorophosphate]
remineralisation of erosive enamel lesions, statistical analysis ([1]; after 5 days of treatment): significant remineralisation
calculated remineralisation ([1]; human enamel, sprayed 0.15 g five times a day for five days, 100% = initial enamel hardness, 0% = after lesion): over 25%
remineralisation of erosive lesions (Vickers microhardness), statistical comparison [2]: statistically (probability <0.05) better than deionised water

F [1450 ppm fluoride solution, monofluorophosphate]
remineralisation of erosive lesions, statistical comparison ([3]; brushed twice a day for five days): statistically better than deionised water
calculated remineralisation ([3]; human enamel, brushed twice a day, after five days of treatment, N=10): over 23%

O=C([O-])O.[Na+] [sodium bicarbonate]
protection from staining (ΔE76), statistical comparison [4, 5]: statistically the same

OPN solution: 3% solution of OPN (osteopontin) pH adjusted to 7.0
protection from staining (ΔE76), statistical comparison ([4]; after the first set of treatments): statistically more protection than sodium bicarbonate solution
protection from staining (ΔE76), statistical comparison [4, 5]: statistically the same
protection from staining (ΔE76), statistical comparison ([4]; after the third round of treatments): statistically the same
protection from staining (ΔE76), statistical comparison ([4]; after the third round of treatments, listed as OPN): statistically better than sodium bicarbonate
